Experimental findings from paper doi:10.1101/2020.10.16.342121v1 (biorxiv, 2020) are described below.

Experiment [1] deals with T1, human serum albumin (HSA) (Homo sapiens, UniProt P02768). Put plainly: intrinsic fluorescence quenching titration. The format is binding.
The target in experiment [2] is T1, human serum albumin (HSA). Put plainly: thermal denaturation followed by intrinsic fluorescence. It is filed as binding. Conditions: 10 mM PBS pH 7.4, 0.4 μM HSA, 40 μM DHLA, 37-87 °C.

T1 sequence (P02768 25-609): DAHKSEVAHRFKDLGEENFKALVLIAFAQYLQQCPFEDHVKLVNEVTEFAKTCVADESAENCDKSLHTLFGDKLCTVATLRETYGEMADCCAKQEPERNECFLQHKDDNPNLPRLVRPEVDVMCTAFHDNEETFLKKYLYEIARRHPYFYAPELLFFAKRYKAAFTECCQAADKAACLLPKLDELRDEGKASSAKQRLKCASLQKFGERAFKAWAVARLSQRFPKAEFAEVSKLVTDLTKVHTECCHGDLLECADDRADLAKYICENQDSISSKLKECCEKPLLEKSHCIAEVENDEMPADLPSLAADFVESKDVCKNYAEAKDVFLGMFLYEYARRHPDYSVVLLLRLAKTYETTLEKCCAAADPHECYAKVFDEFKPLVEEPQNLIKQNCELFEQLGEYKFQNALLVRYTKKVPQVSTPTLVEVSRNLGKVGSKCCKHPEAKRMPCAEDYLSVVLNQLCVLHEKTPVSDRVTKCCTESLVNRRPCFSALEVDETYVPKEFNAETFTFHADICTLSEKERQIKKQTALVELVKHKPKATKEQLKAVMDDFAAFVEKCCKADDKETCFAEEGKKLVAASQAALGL

By Kd is commonly meant the constant that tells how readily two partners part at equilibrium. A high value points to a looser complex. Compound `O=C(O)CCCC[C@@H](S)CCS` [dihydro-alpha-lipoic acid] gave a dissociation constant Kd in experiment [1] of 125 µM. The “Tm with ligand (HSA alone 68 °C)” value in experiment [2] is 70 °C.
